From publication PMC12376627 (2025)

How the values were obtained:
[1] = test system: Histamine aptamer (DNA, aptamer) AGCTCCAGAAGATAAATTACAGGGAACGTGTTGGTTGCGGTTCTTCCGATCTGCTGTGTTCTCTATCTGTGCCATGCAACTAGGATACTATGACCCCGG; assay: CNT FET sensor array; conditions: PC12 culture medium; highest concentration tested 10 nM
[2] = test system: Dopamine aptamer (DNA, aptamer) CGACGCCAGTTTGAAGGTTCGTTCGCAGGTGTGGAGTGACGTCG; assay: CNT FET sensor array; conditions: PC12 culture medium; highest concentration tested 10 nM
[3] = test system: Glutamate aptamer (DNA, aptamer) GCATCAGTCCACTCGTGAGGTCGACTGATGAGGCTCGAT; assay: CNT FET sensor array; conditions: PC12 culture medium; highest concentration tested 10 nM
[4] = test system: Serotonin pH-sensitive aptamer (DNA, aptamer) CGACTGGTAGGCAGATAGGGGAAGCTGATTCGATGCGTGGGTCGTTTCGACCTTTCCAGC; assay: CNT FET; conditions: 10 nM target; released at acidic pH
[5] = test system: Serotonin aptamer (DNA, aptamer) CGACTGGTAGGCAGATAGGGGAAGCTGATTCGATGCGTGGGTCG; assay: SPR
[6] = test system: Histamine pH-sensitive aptamer (DNA, aptamer) AGCTCCAGAAGATAAATTACAGGGAACGTGTTGGTTGCGGTTCTTCCGATCTGCTGTGTTCTCTATCTGTGCCATGCAACTAGGATACTATGACCCCGGTTTCCGGGGTTTTTGGGGCC; assay: CNT FET; conditions: 10 nM target; released at acidic pH
[7] = test system: Serotonin aptamer (DNA, aptamer) CGACTGGTAGGCAGATAGGGGAAGCTGATTCGATGCGTGGGTCG; assay: CNT FET sensor array; conditions: PC12 culture medium; highest concentration tested 10 nM
[8] = test system: Histamine aptamer (DNA, aptamer) AGCTCCAGAAGATAAATTACAGGGAACGTGTTGGTTGCGGTTCTTCCGATCTGCTGTGTTCTCTATCTGTGCCATGCAACTAGGATACTATGACCCCGG; assay: SPR
[9] = test system: Dopamine pH-sensitive aptamer (DNA, aptamer) CGACGCCAGTTTGAAGGTTCGTTCGCAGGTGTGGAGTGACGTCGTTTCGACGCTTTAGCAGC; assay: CNT FET; conditions: 0.1x PBS (1x: 137 mM NaCl, 2.7 mM KCl); pH 7.4; 10 nM dopamine; released at acidic pH
[10] = test system: Dopamine aptamer (DNA, aptamer) CGACGCCAGTTTGAAGGTTCGTTCGCAGGTGTGGAGTGACGTCG; assay: SPR
[11] = test system: Glutamate pH-sensitive aptamer (DNA, aptamer) GCATCAGTCCACTCGTGAGGTCGACTGATGAGGCTCGATTTTATCGATTTAGCTA; assay: CNT FET; conditions: 10 nM target; released at acidic pH
[12] = test system: Glutamate aptamer (DNA, aptamer) GCATCAGTCCACTCGTGAGGTCGACTGATGAGGCTCGAT; assay: SPR

In the case of `NCCc1c[nH]c2ccc(O)cc12`, the binding [1] is reported as “no”, the binding [2] is reported as “no” and the binding [3] is reported as “no”. For the same molecule, the binding [4] was “yes” and the Kd [5] was 10.5 nM.
`NCCc1c[nH]cn1` was tested, and the binding [6] was “yes”, the binding [2] was “no” and the binding [3] was “no”. For the same molecule, the binding [7] was “no” and the Kd [8] was 15 nM.
With `NCCc1ccc(O)c(O)c1` the binding [9] was “yes”, the binding [1] was “no” and the Kd [10] was 20 nM. The binding [3] was “no” and the binding [7] was “no”.
With `N[C@@H](CCC(=O)O)C(=O)O` the binding [11] was “yes”, the binding [1] was “no” and the Kd [12] was 293 nM. The binding [2] was “no” and the binding [7] was “no”.
